One experiment has as its system T1, C45.
T1 construct: de novo 4-helix bundle with covalently attached heme C
Briefly: stopped-flow UV/visible kinetics of heme carbene formation. Type of experiment: biochemical, synthetic construct. The conditions noted are these: ferrous protein, anaerobic, pH 8.6, 100 mM KCl, 20 mM CHES, 5 °C, ethanol present; no acceptor; single-turnover metallocarbenoid formation; covalent heme adduct; read-out: K1 (pseudo-Michaelis constant).

For a further experiment, the target named is T2, Rma-TDE (Rhodothermus marinus, UniProt B3FQS5, V103T/M128D/M131E).
T2 construct: gene cytC; engineered triple variant TDE of c-type cytochrome; synthetic gene, periplasmic expression from pSHT in E. coli T7 Express
The description is as above. Conditions: read-out: K1 (pseudo-Michaelis constant); ferrous protein, anaerobic, pH 8.6, 100 mM KCl, 20 mM CHES, 5 °C, ethanol present; no acceptor; single-turnover metallocarbenoid formation; covalent heme adduct. Type of experiment: biochemical.

The values that follow come from paper PMC6983366, “A de novo peroxidase is also a promiscuous yet stereoselective carbene transferase” (Proceedings of the National Academy of Sciences of the …, 2020).

Each structure is given as a SMILES string.

T2 sequence (B3FQS5 entry or part of it V103T/M128D/M131E): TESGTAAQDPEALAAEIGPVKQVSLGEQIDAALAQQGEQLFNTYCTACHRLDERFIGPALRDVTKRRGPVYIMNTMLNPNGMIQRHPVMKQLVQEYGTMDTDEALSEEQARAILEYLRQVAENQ

`CCOC(=O)C=[N+]=[N-]` [EDA]: the Km came to 74 µM in the experiment with C45 and 490 µM on Rma-TDE.
